These compounds were tested against Replicase polyprotein 1ab (Severe acute respiratory syndrome-related coronavirus, UniProt P0C6X7).

SMILES	IC50
CC(C)(C)c1ccc(N2N=C(c3ccccc3)/C(=C/c3ccc(-c4cc(Cl)ccc4C(=O)O)o3)C2=O)cc1	5.8 µM
O=C(O)c1ccc(Cl)cc1-c1ccc(/C=C2\C(=O)N(c3ccc(F)cc3)N=C2c2ccccc2)o1	20.2 µM
O=C(O)c1cccc(N2N=C(c3ccccc3)/C(=C/c3ccc(-c4cc(Cl)ccc4C(=O)O)o3)C2=O)c1	44.7 µM
COc1ccc(N2N=C(c3ccccc3)/C(=C/c3ccc(-c4ccccc4C(=O)O)o3)C2=O)cc1	30.7 µM
CC1=NN(c2cccc(C(=O)O)c2)C(=O)/C1=C\c1ccc(-c2ccccc2)o1	> 50 µM
N#Cc1ccc(N2N=C(c3ccccc3)/C(=C/c3ccc(-c4ccccc4C(=O)O)o3)C2=O)cc1	18.7 µM
CC(C)c1ccc(N2N=C(c3ccccc3)/C(=C/c3ccc(-c4ccccc4C(=O)O)o3)C2=O)cc1	11.7 µM
CC(C)(C)c1ccc(N2N=C(c3ccccc3)/C(=C/c3ccc(-c4ccccc4C(=O)O)o3)C2=O)cc1	8.6 µM
O=C(O)c1cccc(N2N=C(c3ccccc3)/C(=C/c3ccco3)C2=O)c1	> 50 µM
O=C(O)c1cccc(N2N=C(c3ccccc3)/C(=C/c3ccc(-c4ccccc4)o3)C2=O)c1	6.4 µM
CC1=NN(c2ccccc2)C(=O)/C1=C\c1ccc(-c2cc(Cl)ccc2C(=O)O)o1	> 50 µM
O=C1/C(=C\c2ccc(-c3ccccc3)o2)C(c2ccccc2)=NN1c1ccccc1	> 50 µM
O=C(O)c1cccc(N2N=C(C(F)(F)F)/C(=C/c3ccc(-c4cc(Cl)ccc4C(=O)O)o3)C2=O)c1	> 50 µM
O=C(O)c1ccccc1-c1ccc(/C=C2\C(=O)N(c3ccc(F)cc3)N=C2c2ccccc2)o1	37.5 µM
O=C(O)c1ccc(Cl)cc1-c1ccc(/C=C2\C(=O)N(c3ccccc3)N=C2c2ccccc2)o1	16.4 µM
O=C(O)c1ccccc1-c1ccc(/C=C2\C(=O)N(c3ccccc3)N=C2c2ccccc2)o1	41.2 µM
CC1=NN(c2cccc(C(=O)O)c2)C(=O)/C1=C\c1ccc(-c2cc(Cl)ccc2C(=O)O)o1	> 50 µM

These compounds were tested against Neuraminidase (Influenza A virus, UniProt B4URF0) (assay: Inhibition of Influenza A virus H5N1 neuraminidase preincubated for 10 mins followed by addition of 2'-(4-methylumbelliferyl)-alpha-D-N-acetylneuraminic acid as fluorogenic substrate measured after 15 mins by fluorescence analysis).
Sequence of Neuraminidase (B4URF0 whole entry): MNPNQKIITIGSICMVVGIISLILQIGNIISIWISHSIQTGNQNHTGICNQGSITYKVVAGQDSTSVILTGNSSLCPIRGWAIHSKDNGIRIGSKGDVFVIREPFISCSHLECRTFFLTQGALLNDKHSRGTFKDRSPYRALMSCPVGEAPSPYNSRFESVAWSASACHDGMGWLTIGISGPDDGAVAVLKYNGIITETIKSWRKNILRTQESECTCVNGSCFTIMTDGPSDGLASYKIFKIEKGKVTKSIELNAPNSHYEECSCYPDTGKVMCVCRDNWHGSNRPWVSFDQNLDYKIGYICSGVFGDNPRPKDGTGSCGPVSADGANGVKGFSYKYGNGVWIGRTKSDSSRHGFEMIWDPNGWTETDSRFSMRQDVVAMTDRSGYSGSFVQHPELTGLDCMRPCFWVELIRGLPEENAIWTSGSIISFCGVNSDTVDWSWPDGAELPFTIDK

SMILES	IC50
O=C(O)c1ccc(Cl)cc1-c1ccc(/C=C2\C(=O)N(c3ccc(F)cc3)N=C2c2ccccc2)o1	2.9 µM
O=C(O)c1ccc(Cl)cc1-c1ccc(/C=C2\C(=O)N(c3ccccc3)N=C2c2ccccc2)o1	2.8 µM
O=C(O)c1ccccc1-c1ccc(/C=C2\C(=O)N(c3ccccc3)N=C2c2ccccc2)o1	13.7 µM

— ChEMBL document CHEMBL3808339, “Identification, synthesis and evaluation of SARS-CoV and MERS-CoV 3C-like protease inhibitors” (Bioorg Med Chem, 2016)
